From ChEMBL document CHEMBL3865792, “Antioxidant and antitumor activity of trolox, trolox succinate, and α-tocopheryl succinate conjugates with nitroxides” (Eur J Med Chem, 2016)

Tested on: not listed separately
Assay: Genotoxicity in Escherichia coli PQ37 expressing lacZ gene assessed as ratio of inducible beta-galactosidase activity to alkaline phosphatase activity at 3 mM after 2 hrs by SOS-chromotest relative to control
Format: toxicity
Settings: Escherichia coli PQ37 cells expressing lacZ gene, read-out: FC

SMILES	fold induction at 2 h, 3000 µM
CC1(C)CC(NC(=O)CCC(=O)O)C(C)(C)N1[O] (stereo not drawn)	1.2
CC1(C)CC(NC(=O)CCC(=O)O)CC(C)(C)N1[O]	1.3

Tested on: Salmonella typhimurium
Assay: Genotoxicity in Salmonella typhimurium TA102 harboring […] mutant assessed as frequency of reversion from histidine auxotrophy to prototrophy at 30 mM after 48 hrs by Ames test (reference value: 209 +/- 10 No _unit)
Format: toxicity, organism-based
Settings: salmonella enterica subsp. enterica serovar typhimurium, 30000 µM

SMILES	Activity
CC1(C)CC(NC(=O)CCC(=O)O)C(C)(C)N1[O] (stereo not drawn)	199
CC1(C)CC(NC(=O)CCC(=O)O)CC(C)(C)N1[O]	211

Tested on: Salmonella enterica subsp. enterica serovar Typhimurium
Assay: Antioxidant activity in Salmonella typhimurium TA102 harboring […] mutant assessed as inhibition of t-BuO2H-dependant mutant formation at 0.3 uM preincubated with compound followed by t-BuO2H addition after 48 hrs by Ames test
Format: functional
Settings: not given

SMILES	inhibition
CC1(C)CC(NC(=O)CCC(=O)O)C(C)(C)N1[O] (stereo not drawn)	38%
CC1(C)CC(NC(=O)CCC(=O)O)CC(C)(C)N1[O]	36%

Tested on: Salmonella enterica subsp. enterica serovar Typhimurium
Assay: Antioxidant activity in Salmonella typhimurium TA102 harboring […] mutant assessed as inhibition of t-BuO2H-dependant mutant formation at 3 uM preincubated with compound followed by t-BuO2H addition after 48 hrs by Ames test
Format: functional
Settings: not given

SMILES	inhibition
CC1(C)CC(NC(=O)CCC(=O)O)C(C)(C)N1[O] (stereo not drawn)	48%
CC1(C)CC(NC(=O)CCC(=O)O)CC(C)(C)N1[O]	49%

Tested on: Salmonella enterica subsp. enterica serovar Typhimurium
Assay: Antioxidant activity in Salmonella typhimurium TA102 harboring […] mutant assessed as inhibition of t-BuO2H-dependant mutant formation at 30 uM preincubated with compound followed by t-BuO2H addition after 48 hrs by Ames test
Format: functional
Settings: not given

SMILES	inhibition
CC1(C)CC(NC(=O)CCC(=O)O)C(C)(C)N1[O] (stereo not drawn)	52%
CC1(C)CC(NC(=O)CCC(=O)O)CC(C)(C)N1[O]	41%

Tested on: not listed separately
Assay: Cytotoxicity against human MCF7 cells assessed as reduction in cell viability after 72 hrs by MTT assay
Format: functional, cell-based
Settings: MCF7, 72 h

SMILES	IC50
CC1(C)CC(NC(=O)CCC(=O)O)C(C)(C)N1[O] (stereo not drawn)	> 300 µM
CC1(C)CC(NC(=O)CCC(=O)O)CC(C)(C)N1[O]	> 300 µM

Tested on: not listed separately
Assay: Cytotoxicity against human RPMI8226 cells assessed as reduction in cell viability after 72 hrs by MTT assay
Format: functional, cell-based
Settings: RPMI-8226, 72 h

SMILES	IC50
CC1(C)CC(NC(=O)CCC(=O)O)C(C)(C)N1[O] (stereo not drawn)	> 300 µM
CC1(C)CC(NC(=O)CCC(=O)O)CC(C)(C)N1[O]	> 300 µM

Tested on: not listed separately
Assay: Cytotoxicity against human HepG2 cells assessed as reduction in cell viability after 72 hrs by MTT assay
Format: functional, cell-based
Settings: HepG2, 72 h

SMILES	IC50
CC1(C)CC(NC(=O)CCC(=O)O)C(C)(C)N1[O] (stereo not drawn)	> 300 µM
CC1(C)CC(NC(=O)CCC(=O)O)CC(C)(C)N1[O]	> 300 µM

Tested on: not listed separately
Assay: Cytotoxicity against human CEM13 cells assessed as reduction in cell viability after 72 hrs by MTT assay
Format: functional, cell-based
Settings: CEM13, 72 h

SMILES	IC50
CC1(C)CC(NC(=O)CCC(=O)O)C(C)(C)N1[O] (stereo not drawn)	> 400 µM
CC1(C)CC(NC(=O)CCC(=O)O)CC(C)(C)N1[O]	> 400 µM

Tested on: not listed separately
Assay: Cytotoxicity against human U937 cells assessed as reduction in cell viability after 72 hrs by MTT assay
Format: functional, cell-based
Settings: U-937, 72 h

SMILES	IC50
CC1(C)CC(NC(=O)CCC(=O)O)C(C)(C)N1[O] (stereo not drawn)	241 µM
CC1(C)CC(NC(=O)CCC(=O)O)CC(C)(C)N1[O]	170 µM

Tested on: not listed separately
Assay: Cytotoxicity against human MT4 cells assessed as reduction in cell viability after 72 hrs by MTT assay
Format: functional, cell-based
Settings: MT4, 72 h

SMILES	IC50
CC1(C)CC(NC(=O)CCC(=O)O)C(C)(C)N1[O] (stereo not drawn)	> 400 µM
CC1(C)CC(NC(=O)CCC(=O)O)CC(C)(C)N1[O]	> 400 µM

Tested on: not listed separately
Assay: Cytotoxicity against mouse LMTK cells assessed as reduction in cell viability after 72 hrs by MTT assay
Format: toxicity
Settings: not given

SMILES	IC50 at 72 h
CC1(C)CC(NC(=O)CCC(=O)O)C(C)(C)N1[O] (stereo not drawn)	> 300 µM
CC1(C)CC(NC(=O)CCC(=O)O)CC(C)(C)N1[O]	> 300 µM

Tested on: not listed separately
Assay: Cytotoxicity against hamster AG17-1 cells assessed as reduction in cell viability after 72 hrs by MTT assay
Format: toxicity, cell-based, Cricetulus griseus
Settings: Chinese hamster

SMILES	IC50 at 72 h
CC1(C)CC(NC(=O)CCC(=O)O)C(C)(C)N1[O] (stereo not drawn)	> 300 µM
CC1(C)CC(NC(=O)CCC(=O)O)CC(C)(C)N1[O]	> 300 µM

Tested on: not listed separately
Assay: Cytotoxicity against human MCF7 cells assessed as reduction in cell viability at 300 uM after 72 hrs by MTT assay
Format: functional
Settings: MCF7, 72 h

SMILES	inhibition at 300 µM
CC1(C)CC(NC(=O)CCC(=O)O)C(C)(C)N1[O] (stereo not drawn)	17%
CC1(C)CC(NC(=O)CCC(=O)O)CC(C)(C)N1[O]	20%

Tested on: not listed separately
Assay: Cytotoxicity against human RPMI8226 cells assessed as reduction in cell viability at 300 uM after 72 hrs by MTT assay
Format: functional
Settings: RPMI-8226, 72 h

SMILES	inhibition at 300 µM
CC1(C)CC(NC(=O)CCC(=O)O)C(C)(C)N1[O] (stereo not drawn)	44%
CC1(C)CC(NC(=O)CCC(=O)O)CC(C)(C)N1[O]	12%

Tested on: not listed separately
Assay: Cytotoxicity against human HepG2 cells assessed as reduction in cell viability at 300 uM after 72 hrs by MTT assay
Format: functional
Settings: HepG2, 72 h

SMILES	inhibition at 300 µM
CC1(C)CC(NC(=O)CCC(=O)O)C(C)(C)N1[O] (stereo not drawn)	0%
CC1(C)CC(NC(=O)CCC(=O)O)CC(C)(C)N1[O]	0%

Tested on: not listed separately
Assay: Cytotoxicity against mouse LMTK cells assessed as reduction in cell viability at 300 uM after 72 hrs by MTT assay
Format: toxicity
Settings: read-out: INH

SMILES	cytotoxicity at 72 h, 300 µM
CC1(C)CC(NC(=O)CCC(=O)O)C(C)(C)N1[O] (stereo not drawn)	0%
CC1(C)CC(NC(=O)CCC(=O)O)CC(C)(C)N1[O]	18%

Tested on: not listed separately
Assay: Cytotoxicity against hamster AG17-1 cells assessed as reduction in cell viability at 300 uM after 72 hrs by MTT assay
Format: toxicity, cell-based, Cricetulus griseus
Settings: Chinese hamster, read-out: INH

SMILES	cytotoxicity at 72 h, 300 µM
CC1(C)CC(NC(=O)CCC(=O)O)C(C)(C)N1[O] (stereo not drawn)	19%
CC1(C)CC(NC(=O)CCC(=O)O)CC(C)(C)N1[O]	0%

Tested on: not listed separately
Assay: Ratio of IC50 for human MCF7 cells to concentration causing antioxidant activity in Salmonella typhimurium TA102 harboring […] mutant
Format: functional
Settings: not given

SMILES	Ratio
CC1(C)CC(NC(=O)CCC(=O)O)C(C)(C)N1[O] (stereo not drawn)	100 - 1000
CC1(C)CC(NC(=O)CCC(=O)O)CC(C)(C)N1[O]	100 - 1000

Tested on: not listed separately
Assay: Ratio of IC50 for human RPMI8226 cells to concentration causing antioxidant activity in Salmonella typhimurium TA102 harboring […] mutant
Format: functional, RPMI-8226
Settings: not given

SMILES	Ratio
CC1(C)CC(NC(=O)CCC(=O)O)C(C)(C)N1[O] (stereo not drawn)	100 - 1000
CC1(C)CC(NC(=O)CCC(=O)O)CC(C)(C)N1[O]	100 - 1000

Tested on: not listed separately
Assay: Ratio of IC50 for human HEPG2 cells to concentration causing antioxidant activity in Salmonella typhimurium TA102 harboring […] mutant
Format: functional
Settings: not given

SMILES	Ratio
CC1(C)CC(NC(=O)CCC(=O)O)C(C)(C)N1[O] (stereo not drawn)	100 - 1000
CC1(C)CC(NC(=O)CCC(=O)O)CC(C)(C)N1[O]	100 - 1000

Tested on: not listed separately
Assay: Ratio of IC50 for human CEM13 cells to concentration causing antioxidant activity in Salmonella typhimurium TA102 harboring […] mutant
Format: functional
Settings: not given

SMILES	Ratio
CC1(C)CC(NC(=O)CCC(=O)O)C(C)(C)N1[O] (stereo not drawn)	100 - 1000
CC1(C)CC(NC(=O)CCC(=O)O)CC(C)(C)N1[O]	100 - 1000

Tested on: not listed separately
Assay: Ratio of IC50 for human MT4 cells to concentration causing antioxidant activity in Salmonella typhimurium TA102 harboring […] mutant
Format: functional
Settings: not given

SMILES	Ratio
CC1(C)CC(NC(=O)CCC(=O)O)C(C)(C)N1[O] (stereo not drawn)	100 - 1000
CC1(C)CC(NC(=O)CCC(=O)O)CC(C)(C)N1[O]	100 - 1000

Tested on: not listed separately
Assay: Ratio of IC50 for human U937 cells to concentration causing antioxidant activity in Salmonella typhimurium TA102 harboring […] mutant
Format: functional, U-937
Settings: not given

SMILES	Ratio
CC1(C)CC(NC(=O)CCC(=O)O)C(C)(C)N1[O] (stereo not drawn)	100 - 1000
CC1(C)CC(NC(=O)CCC(=O)O)CC(C)(C)N1[O]	100 - 1000
